The test system of assay [1] is patients who have neuropathic pain around the low back and the lower limbs. The assay is described as follows: Pain intensity by Visual Analogue Scale (VAS), responder rate in patients with neuropathic pain. The format is in vivo, human. As to the method:
(§1) Compound A and corresponding placebo were injected to the patients who have neuropathic pain around the low back and the lower limbs twice daily for 14 days. For the first 3 days, 30 μg of Compound A was administered twice daily (60 μg/day), and then 60 μg of Compound A was administer twice daily (120 μg/day) for the next 11 days.
The intensity of pain was assessed using Visual Analogue Scale (VAS). A VAS is usually a horizontal line, 100 mm in length, anchored by no pain and awful pain at each end. The patient marks on the line the point that they feel represents their perception of their current state. The VAS score is determined by measuring in millimeters from the left hand end of the line to the point that the patient marks. VAS score was measured before (Pre-treatment) and 15-days (Day 15) after start treatment by Compound A or placebo.

Assay [2] shares this test system. The assay can be described thus: Pain-associated QOL by JOABPEQ (social life function) in patients with neuropathic pain. The format is in vivo, human. As to the method:
as §1
The patient's pain-associated quality of life (QOL) was assessed using Japan Orthopedic Association Back Pain Evaluation questionnaires (JOABPEQ). Patients self-evaluated their QOL before (Pre-Treatment), 8 days (Day 8) and 15 days (Day 15) after start treatment by Compound A or placebo.

The test system of assay [3] is neuropathic pain model rats. The assay can be described thus: Pain threshold in neuropathic pain model rats (L4/L5 nerve root ligation, Dynamic Plantar Aesthesiometer). The format is in vivo, rat. Particulars: for Pain threshold, During treatment 2 day: 2-day after start of administration; for Pain threshold, During treatment 4-day: 4-day after start of administration; for Pain threshold, During treatment 7-day: 7-day after start of administration; for Pain threshold, 10-day: 10-day after start of administration; for Pain threshold, Pre-treatment: baseline, before start of administration.

The mark [4] stands for this setting: 30 μg/kg intravenous twice a day for 7 days.
The mark [5] stands for this setting: 1 mg/kg oral twice a day for 7 days.

Structures are written as SMILES. Marks after values point to notes of the source that are not given here.

For `CCCCC(F)(F)C(=O)CC[C@H]1CCC(=O)[C@@H]1CCCCCCC(=O)O` [Compound A, (−)-7-[(1R,2R)-2-(4,4-difluoro-3-oxooctyl)-5-oxocyclopentyl]heptanoic acid], the Rate of responder in assay [1] (injected twice daily for 14 days: 60 μg/day for 3 days, then 120 μg/day for 11 days, VAS Day 15 vs pre-treatment) is 94.4% (N = 18) *. In addition, in assay [1] (injected twice daily for 14 days, VAS Day 15), the “Responder rate compared with placebo treated group” value is reported as “significantly higher”. The “Change in score of social life function from pre-treatment, Day 15” value in assay [2] (injected twice daily for 14 days: 60 μg/day for 3 days, then 120 μg/day for 11 days, Day 15, JOABPEQ) is 3.0 ± 2.8 (N = 20). For the same compound, the “Social life function (JOABPEQ factor)” value in assay [2] (injected twice daily for 14 days, vs placebo) is recorded as “significantly improved”. Also, in assay [2] (injected twice daily: 60 μg/day for 3 days, then 120 μg/day, Day 8, JOABPEQ), the “Change in score of social life function from pre-treatment, Day 8” value is 2.7 ± 2.8 (N = 20) ^a. For the same compound, in assay [3] (setting [4]), the “Pain threshold, During treatment 2 day” value is 6.8 ± 0.3 g; the “Pain threshold, During treatment 4-day” value was 7.6 ± 0.3 g; the “Pain threshold, During treatment 7-day” value is listed as 8.1 ± 0.3 g; the “Pain threshold, 10-day” value came to 8.4 g. In assay [3] (30 μg/kg intravenous twice a day, 4 days after surgery), the “Pain threshold, Pre-treatment” value is on record as 6.1 ± 0.2 g. In assay [3] (intravenous, 30 μg/kg twice a day), the “Pain threshold of the model paw compared with vehicle-control group” value was “statistically significantly increased”.
For the compound `CCCCC(F)(F)C(=O)CC[C@H]1CCC(=O)[C@@H]1CCCC/C=C/C(=O)O` [Compound B, (E)-7-[(1R,2R)-2-(4,4-difluoro-3-oxooctyl)-5-oxocyclopentyl]hept-2-enoic acid], in assay [3] (setting [5]), the “Pain threshold, During treatment 2 day” value is reported as 7.7 ± 0.3 g; the “Pain threshold, During treatment 4-day” value turned out to be 8.2 g; the “Pain threshold, During treatment 7-day” value amounted to 8.6 ± 0.2 g; the “Pain threshold, 10-day” value worked out at 8.2 ± 0.2 g. Moreover, the “Pain threshold, Pre-treatment” value in assay [3] (1 mg/kg oral twice a day) was 6.8 ± 0.2 g. Also, in assay [3] (oral, 1 mg/kg twice a day for 7 days), the “Pain threshold of the model paw compared with vehicle-control group” value is reported as “statistically significantly increased”.

Source of the values: patent publication US20150057351A1, “METHOD FOR TREATING NEUROPATHIC PAIN” (SUCAMPO AG, priority 2013, published 2015).
